The structures appear in SMILES notation. pEC50, pIC50: −log10 of the molar value. Where only a bound is given, the exact number is not on record here.

Test [1] deals with T1, NS3-NS4 (Hepatitis C virus genotype 1a, UniProt P27958). The test can be described thus: NS3-NS4 activity, IC50 (Example 37, Table 8). It counts as biochemical.
Test [2] concerns the target T1, NS3-NS4. As to the kind of experiment: cell-based. Conditions: EC50, NS3-NS4 activity.

T1 sequence (P27958 1027-1657): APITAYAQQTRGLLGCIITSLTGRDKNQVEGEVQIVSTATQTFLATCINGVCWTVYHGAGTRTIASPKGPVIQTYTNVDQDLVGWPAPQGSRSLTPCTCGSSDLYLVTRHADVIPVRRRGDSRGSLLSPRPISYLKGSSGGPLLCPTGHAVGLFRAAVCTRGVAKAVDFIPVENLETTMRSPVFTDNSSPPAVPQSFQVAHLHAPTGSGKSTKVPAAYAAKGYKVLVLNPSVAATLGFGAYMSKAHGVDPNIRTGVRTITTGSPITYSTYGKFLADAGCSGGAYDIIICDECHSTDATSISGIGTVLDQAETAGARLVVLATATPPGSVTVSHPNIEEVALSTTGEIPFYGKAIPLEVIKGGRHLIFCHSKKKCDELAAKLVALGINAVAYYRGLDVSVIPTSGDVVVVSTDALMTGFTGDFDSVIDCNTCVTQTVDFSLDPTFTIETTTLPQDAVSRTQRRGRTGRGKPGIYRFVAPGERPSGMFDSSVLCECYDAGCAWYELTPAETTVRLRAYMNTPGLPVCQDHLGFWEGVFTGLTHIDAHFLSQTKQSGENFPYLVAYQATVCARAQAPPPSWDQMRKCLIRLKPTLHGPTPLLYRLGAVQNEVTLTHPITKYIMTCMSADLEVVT
T1 sequence (P27958 1658-1711): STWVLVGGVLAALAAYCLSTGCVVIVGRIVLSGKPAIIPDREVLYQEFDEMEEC

On to `CCC(C)(C)OC(=O)N[C@H]1CCCCC/C=C\[C@@H]2C[C@@]2(C(=O)NS(=O)(=O)c2cc(Cl)sc2Cl)NC(=O)[C@@H]2C[C@@H](OC(=O)N3Cc4cccc(F)c4C3)CN2C1=O` [Compound 344], for which, in test [1], the pIC50 (commonly the IC50 on a negative log10 scale, so that one unit is a factor of ten) was greater than 7.00. Besides, the pEC50 (as a rule, −log10 of the EC50, conventionally taken in molar units) in test [2] was greater than 7.00.
`CC(C)(C)OC(=O)N[C@H]1CCCCC/C=C\[C@@H]2C[C@@]2(C(=O)NS(=O)(=O)c2ccccc2C(F)(F)F)NC(=O)[C@@H]2C[C@@H](OC(=O)N3Cc4cccc(F)c4C3)CN2C1=O` [Compound 345] showed a pIC50 in test [1] greater than 7.00. Besides, the pEC50 in test [2] was greater than 7.00.
In test [1], `Cc1cc(F)ccc1S(=O)(=O)NC(=O)[C@@]12C[C@H]1/C=C\CCCCC[C@H](NC(=O)OC(C)(C)C)C(=O)N1C[C@H](OC(=O)N3Cc4cccc(F)c4C3)C[C@H]1C(=O)N2` [Compound 346] had a pIC50 greater than 7.00. In test [2], this compound had a pEC50 greater than 7.00.
On to `CC(C)(C)OC(=O)N[C@H]1CCCCC/C=C\[C@@H]2C[C@@]2(C(=O)NS(=O)(=O)c2ccc(C(F)(F)F)cc2)NC(=O)[C@@H]2C[C@@H](OC(=O)N3Cc4cccc(F)c4C3)CN2C1=O` [Compound 347], for which the negative logarithm of the IC50 (pIC50) in test [1] was greater than 7.00. Besides, in test [2], the pEC50 is greater than 7.00.
With `CC(C)(C)OC(=O)N[C@H]1CCCCC/C=C\[C@@H]2C[C@@]2(C(=O)NS(=O)(=O)c2ccc(Cl)cc2Cl)NC(=O)[C@@H]2C[C@@H](OC(=O)N3Cc4cccc(F)c4C3)CN2C1=O` [Compound 348], the pIC50 in test [1] was greater than 7.00. Further, the pEC50 in test [2] was greater than 7.00.
On to `CC(C)(C)OC(=O)N[C@H]1CCCCC/C=C\[C@@H]2C[C@@]2(C(=O)NS(=O)(=O)c2ccccc2F)NC(=O)[C@@H]2C[C@@H](OC(=O)N3Cc4cccc(F)c4C3)CN2C1=O` [Compound 349], for which the pIC50 in test [1] was greater than 7.00. The pEC50 in test [2] is greater than 7.00.
Compound `CC(C)(C)OC(=O)N[C@H]1CCCCC/C=C\[C@@H]2C[C@@]2(C(=O)NS(=O)(=O)c2cccc(F)c2)NC(=O)[C@@H]2C[C@@H](OC(=O)N3Cc4cccc(F)c4C3)CN2C1=O` [Compound 350] gave a pIC50 in test [1] greater than 7.00. Further, the pEC50 in test [2] was greater than 7.00.
`CC(C)(C)OC(=O)N[C@H]1CCCCC/C=C\[C@@H]2C[C@@]2(C(=O)NS(=O)(=O)c2ccc(F)cc2)NC(=O)[C@@H]2C[C@@H](OC(=O)N3Cc4cccc(F)c4C3)CN2C1=O` [Compound 351]: in test [1], the pIC50 was greater than 7.00. The pEC50 in test [2] was greater than 7.00.
`COc1ccc(S(=O)(=O)NC(=O)[C@@]23C[C@H]2/C=C\CCCCC[C@H](NC(=O)OC(C)(C)C)C(=O)N2C[C@H](OC(=O)N4Cc5cccc(F)c5C4)C[C@H]2C(=O)N3)cc1` [Compound 352] showed a pIC50 in test [1] greater than 7.00. This compound also gave a pEC50 in test [2] greater than 7.00.
As for `CC(C)(C)OC(=O)N[C@H]1CCCCC/C=C\[C@@H]2C[C@@]2(C(=O)NS(=O)(=O)c2cccc(Cl)c2)NC(=O)[C@@H]2C[C@@H](OC(=O)N3Cc4cccc(F)c4C3)CN2C1=O` [Compound 353], the pIC50 in test [1] was greater than 7.00. Further, the pEC50 in test [2] is greater than 7.00.
In turn, `CC(C)(C)OC(=O)N[C@H]1CCCCC/C=C\[C@@H]2C[C@@]2(C(=O)NS(=O)(=O)c2cc(Cl)c(Cl)s2)NC(=O)[C@@H]2C[C@@H](OC(=O)N3Cc4cccc(F)c4C3)CN2C1=O` [Compound 354] had a pIC50 in test [1] greater than 7.00. Further, the pEC50 in test [2] is 6.00 to 7.00.
On the same counts, the results for `Cc1ccc(S(=O)(=O)NC(=O)[C@@]23C[C@H]2/C=C\CCCCC[C@H](NC(=O)OC(C)(C)C)C(=O)N2C[C@H](OC(=O)N4Cc5cccc(F)c5C4)C[C@H]2C(=O)N3)c(C)c1` [Compound 355] are greater than 7.00 and greater than 7.00.
In test [1], `CC(C)Oc1ccc(S(=O)(=O)NC(=O)[C@@]23C[C@H]2/C=C\CCCCC[C@H](NC(=O)OC(C)(C)C)C(=O)N2C[C@H](OC(=O)N4Cc5cccc(F)c5C4)C[C@H]2C(=O)N3)cc1` [Compound 356] showed a negative logarithm of the IC50 (pIC50) greater than 7.00. In test [2], the pEC50 is greater than 7.00.
In test [1], `CC(C)(C)OC(=O)N[C@H]1CCCCC/C=C\[C@@H]2C[C@@]2(C(=O)NS(=O)(=O)c2cc(Cl)sc2Cl)NC(=O)[C@@H]2C[C@@H](OC(=O)N3CCc4ccccc4C3)CN2C1=O` [Compound 357] gave a pIC50 of 6.00 to 7.00. The compound further gave a pEC50 in test [2] of 6.00 to 7.00.
For the compound `Cc1ccccc1S(=O)(=O)NC(=O)[C@@]12C[C@H]1/C=C\CCCCC[C@H](NC(=O)N(C)C(C)(C)C)C(=O)N1C[C@H](OC(=O)N3Cc4cccc(F)c4C3)C[C@H]1C(=O)N2` [Compound 358], the pIC50 in test [1] is greater than 7.00. This compound had a pEC50 in test [2] greater than 7.00.
As for `CN(C(=O)N[C@H]1CCCCC/C=C\[C@@H]2C[C@@]2(C(=O)NS(=O)(=O)c2ccccc2Cl)NC(=O)[C@@H]2C[C@@H](OC(=O)N3Cc4cccc(F)c4C3)CN2C1=O)C(C)(C)C` [Compound 359], in test [1], the pIC50 is greater than 7.00. In addition, the pEC50 in test [2] was greater than 7.00.
In test [1], `CN(C(=O)N[C@H]1CCCCC/C=C\[C@@H]2C[C@@]2(C(=O)NS(=O)(=O)c2c(Cl)cccc2Cl)NC(=O)[C@@H]2C[C@@H](OC(=O)N3Cc4cccc(F)c4C3)CN2C1=O)C(C)(C)C` [Compound 360] had a pIC50 greater than 7.00. Besides, in test [2], the pEC50 was 6.00 to 7.00.
In the case of `CN(C(=O)N[C@H]1CCCCC/C=C\[C@@H]2C[C@@]2(C(=O)NS(=O)(=O)c2ccc(Cl)cc2)NC(=O)[C@@H]2C[C@@H](OC(=O)N3Cc4cccc(F)c4C3)CN2C1=O)C(C)(C)C` [Compound 361], the pIC50 in test [1] is greater than 7.00. The same compound had a pEC50 in test [2] greater than 7.00.
The compound `CN(C(=O)N[C@H]1CCCCC/C=C\[C@@H]2C[C@@]2(C(=O)NS(=O)(=O)c2c(F)cccc2F)NC(=O)[C@@H]2C[C@@H](OC(=O)N3Cc4cccc(F)c4C3)CN2C1=O)C(C)(C)C` [Compound 362] gave a pIC50 in test [1] greater than 7.00. Besides, in test [2], the pEC50 was 6.00 to 7.00.
On the same counts, the results for `CC(C)(C)OC(=O)N[C@H]1CCCCC/C=C\[C@@H]2C[C@@]2(C(=O)NS(=O)(=O)c2c(F)cccc2F)NC(=O)[C@@H]2C[C@@H](OC(=O)N3CCc4ccccc4C3)CN2C1=O` [Compound 363] are greater than 7.00 and 5.00 to 6.00.
On the same counts, the results for `CC(C)(C)OC(=O)N[C@H]1CCCCC/C=C\[C@@H]2C[C@@]2(C(=O)NS(=O)(=O)c2c(F)cccc2F)NC(=O)[C@@H]2C[C@@H](OC(=O)N3Cc4ccccc4C3)CN2C1=O` [Compound 364] are greater than 7.00 and 6.00 to 7.00.
Take `O=C(N[C@H]1CCCCC/C=C\[C@@H]2C[C@@]2(C(=O)NS(=O)(=O)C2CC2)NC(=O)[C@@H]2C[C@@H](OC(=O)N3Cc4cccc(F)c4C3)CN2C1=O)OC1CCOCC1` [Compound 401, (2R,6S,13aS,14aR,16aS,Z)-14a-(cyclopropylsulfonylcarbamoyl)-5,16-dioxo-6-((tetrahydro-2H-pyran-4-yloxy)carbonylamino)-1,2,3,5,6,7,8,9,10,11,13a,14,14a,15,16,16a-hexadecahydrocyclopropa[e]pyrrolo[1,2-a][1,4]diazacyclopentadecin-2-yl 4-fluoroisoindoline-2-carboxylate]: the pIC50 in test [1] is greater than 7.00. In test [2], the pEC50 was greater than 7.00.
In test [1], `O=C(N[C@H]1CCCCC/C=C\[C@@H]2C[C@@]2(C(=O)NS(=O)(=O)C2CC2)NC(=O)[C@@H]2C[C@@H](OC(=O)N3Cc4cccc(Cl)c4C3)CN2C1=O)O[C@@H]1CCOC1` [Compound 402, (2R,6S,13aS,14aR,16aS,Z)-14a-(cyclopropylsulfonylcarbamoyl)5,16-dioxo-6-(((R)-tetrahydrofuran-3-yloxy)carbonylamino)-1,2,3,5,6,7,8,9,10,11,13a,14,14a,15,16,16a-hexadecahydrocyclopropa[e]pyrrolo[1,2-a][1,4]diazacyclopentadecin-2-yl 4-chloroisoindoline-2-carboxylate] showed a pIC50 greater than 7.00. The same compound had a pEC50 in test [2] greater than 7.00.
On to `O=C1N[C@]2(C(=O)NS(=O)(=O)C3CC3)C[C@H]2/C=C\CCCCC[C@H](NC(=O)C2(C(F)(F)F)CC2)C(=O)N2C[C@H](OC(=O)N3Cc4cccc(F)c4C3)C[C@@H]12` [Compound 403, (2R,6S,13aS,14aR,16aS,Z)-14a-(cyclopropylsulfonylcarbamoyl)-5,16-dioxo-6-(1-(trifluoromethyl)cyclopropanecarboxamido)-1,2,3,5,6,7,8,9,10,11,13a,14,14a,15,16,16a-hexadecahydrocyclopropa[e]pyrrolo[1,2-a][1,4]diazacyclopentadecin-2-yl 4-fluoroisoindoline-2-carboxylate], for which the negative logarithm of the IC50 (pIC50) in test [1] was greater than 7.00. The compound also gave a pEC50 in test [2] greater than 7.00.
For `CC1(OC(=O)N[C@H]2CCCCC/C=C\[C@@H]3C[C@@]3(C(=O)NS(=O)(=O)C3CC3)NC(=O)[C@@H]3C[C@@H](OC(=O)N4Cc5cccc(F)c5C4)CN3C2=O)CC1` [Compound 404, (2R,6S,13aS,14aR,16aS,Z)-14a-(cyclopropylsulfonylcarbamoyl)-6-((1-methylcyclopropoxy)carbonylamino)-5,16-dioxo-1,2,3,5,6,7,8,9,10,11,13a,14,14a,15,16,16a-hexadecahydrocyclopropa[e]pyrrolo[1,2-a][1,4]diazacyclopentadecin-2-yl 4-fluoroisoindoline-2-carboxylate], in test [1], the pIC50 was greater than 7.00. Besides, the pEC50 in test [2] was greater than 7.00.
In test [1], `CCC(C)(C)OC(=O)N[C@H]1CCCCC/C=C\[C@@H]2C[C@@]2(C(=O)NS(=O)(=O)C2CC2)NC(=O)[C@@H]2C[C@@H](OC(=O)N3Cc4cccc(F)c4C3)CN2C1=O` [Compound 405, (2R,6S,13aS,14aR,16aS,Z)-14a-(cyclopropylsulfonylcarbamoyl)-5,16-dioxo-6-(tert-pentyloxycarbonylamino)-1,2,3,5,6,7,8,9,10,11,13a,14,14a,15,16,16a-hexadecahydrocyclopropa[e]pyrrolo[1,2-a][1,4]diazacyclopentadecin-2-yl 4-fluoroisoindoline-2-carboxylate] had a pIC50 greater than 7.00. The compound also had a pEC50 in test [2] greater than 7.00.
`CC(C)(C)COC(=O)N[C@H]1CCCCC/C=C\[C@@H]2C[C@@]2(C(=O)NS(=O)(=O)C2CC2)NC(=O)[C@@H]2C[C@@H](OC(=O)N3Cc4cccc(F)c4C3)CN2C1=O` [Compound 406, (2R,6S,13aS,14aR,16aS,Z)-14a-(cyclopropylsulfonylcarbamoyl)-6-(neopentyloxycarbonylamino)-5,16-dioxo-1,2,3,5,6,7,8,9,10,11,13a,14,14a,15,16,16a-hexadecahydrocyclopropa[e]pyrrolo[1,2-a][1,4]diazacyclopentadecin-2-yl 4-fluoroisoindoline-2-carboxylate]: in test [1], the pIC50 was greater than 7.00. The compound further showed a pEC50 in test [2] greater than 7.00.

The record behind these values is patent US20090155209A1, “NOVEL MACROCYCLIC INHIBITORS OF HEPATITIS C VIRUS REPLICATION” (priority 2007, published 2009).
